Experimental data: patent publication US11034671B2, “Apoptosis signal-regulating kinase inhibitors and uses thereof” (SICHUAN HAISCO PHARMACEUTICAL CO., LTD., priority 2017, dated 2021)

Target: ASK1 (Homo sapiens (Human), UniProt Q99683)
Test: ASK1 KINOMEscan assay (biochemical Kd), competition binding
Conditions: DNA-tagged ASK1 kinase, 11-point 3-fold dilution
Procedure: The binding of compounds to ASK1 were determined using DiscoverX's proprietary technology. […] The assay is performed by combining three components: DNA-tagged ASK1 kinase; immobilized ligand; and a test compound. The ability of the test compound to compete with the immobilized ligand is measured via quantitative PCR of the DNA tag. […] The liganded beads were blocked with excess biotin and washed with blocking buffer (SeaBlock (Pierce), 1% BSA, 0.05% Tween 20, 1 mM DTT) to remove unbound ligand and to reduce nonspecific binding. […] Kds were determined using an 11-point 3-fold compound dilution series with three DMSO control points. […] The compounds were then diluted directly into the assays such that the final concentration of DMSO was 0.9%. All reactions were performed in polypropylene 384-well plate. […] The kinase concentration in the eluates was measured by qPCR. Most Kds were determined using a compound top concentration=30,000 nM. […] Binding constants (Kds) were calculated with a standard dose-response curve using the Hill equation: Response=Background+{(Signal−Background)/[1+(Kd^Hill Slope/Dose^Hill Slope)]}, the Hill Slope was set to −1, and curves were fitted using a non-linear least square fit with the Levenberg-Marquardt algorithm.

ASK1, sequence (Q99683 whole entry): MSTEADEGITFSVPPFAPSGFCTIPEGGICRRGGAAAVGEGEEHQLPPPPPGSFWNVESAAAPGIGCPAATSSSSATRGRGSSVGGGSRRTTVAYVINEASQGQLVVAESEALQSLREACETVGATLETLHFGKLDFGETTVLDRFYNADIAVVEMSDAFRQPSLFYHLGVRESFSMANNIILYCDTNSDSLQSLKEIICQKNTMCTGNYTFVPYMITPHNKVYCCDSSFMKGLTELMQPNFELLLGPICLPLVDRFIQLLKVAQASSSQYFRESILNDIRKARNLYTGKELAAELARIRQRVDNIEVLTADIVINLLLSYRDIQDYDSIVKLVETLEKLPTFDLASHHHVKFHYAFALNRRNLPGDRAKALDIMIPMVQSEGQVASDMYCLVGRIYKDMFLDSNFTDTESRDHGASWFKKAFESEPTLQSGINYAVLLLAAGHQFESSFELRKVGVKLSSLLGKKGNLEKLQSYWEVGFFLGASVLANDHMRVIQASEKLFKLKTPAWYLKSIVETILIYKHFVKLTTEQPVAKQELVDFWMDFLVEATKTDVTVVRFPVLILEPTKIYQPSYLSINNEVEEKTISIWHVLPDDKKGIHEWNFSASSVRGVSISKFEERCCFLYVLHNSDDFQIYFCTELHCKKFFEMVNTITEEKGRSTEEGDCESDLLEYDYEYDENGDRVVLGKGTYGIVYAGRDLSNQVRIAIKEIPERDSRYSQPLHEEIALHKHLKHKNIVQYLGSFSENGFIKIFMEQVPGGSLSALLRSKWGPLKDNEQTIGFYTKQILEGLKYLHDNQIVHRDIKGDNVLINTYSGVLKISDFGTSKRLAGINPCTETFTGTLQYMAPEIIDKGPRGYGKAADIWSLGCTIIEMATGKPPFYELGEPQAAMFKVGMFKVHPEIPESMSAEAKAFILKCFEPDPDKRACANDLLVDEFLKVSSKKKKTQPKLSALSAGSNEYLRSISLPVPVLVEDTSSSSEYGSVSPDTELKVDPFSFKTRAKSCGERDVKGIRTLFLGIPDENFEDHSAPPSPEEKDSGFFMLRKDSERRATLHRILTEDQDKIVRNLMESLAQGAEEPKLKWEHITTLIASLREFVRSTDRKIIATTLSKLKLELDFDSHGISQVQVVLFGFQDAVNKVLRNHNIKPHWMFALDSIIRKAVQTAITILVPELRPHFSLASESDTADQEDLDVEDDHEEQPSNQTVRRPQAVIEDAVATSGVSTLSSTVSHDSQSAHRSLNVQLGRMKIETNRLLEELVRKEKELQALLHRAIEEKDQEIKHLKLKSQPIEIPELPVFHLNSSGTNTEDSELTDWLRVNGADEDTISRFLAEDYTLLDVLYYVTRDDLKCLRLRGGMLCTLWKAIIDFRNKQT

| Compound | Kd |
| --- | --- |
| Cc1ccc(-c2ccc3c(c2)C(=O)Nc2cccc(n2)-c2nncn2C2C[C@H]2CCO3)cn1 (stereo in doubt) [Example 97] | < 10 nM |
| COc1ccc2c(c1)C(=O)Nc1cccc(n1)-c1nncn1CC/C=C/CO2 [Example 1] | < 10 nM |
| COc1ccc2c(c1)C(=O)Nc1cccc(n1)-c1nncn1CCCCCO2 [Example 2] | < 10 nM |
| COc1ccc2c(c1)C(=O)Nc1cccc(n1)-c1nncn1CCC/C=C/CO2 [Example 3] | 10 to 100 nM |
| COc1ccc2c(c1)C(=O)Nc1cccc(n1)-c1nncn1CC/C=C/C2 [Example 4] | > 1000 nM |
| COc1ccc2c(c1)C(=O)Nc1cccc(n1)-c1nncn1CCCCC2 [Example 5] | 100 to 1000 nM |
| COc1ccc2c(c1)C(=O)Nc1cccc(n1)-c1nncn1CC=CCO2 [Example 6] | 10 to 100 nM |
| COc1ccc2c(c1)C(=O)Nc1cccc(n1)-c1nncn1CCCCO2 [Example 7] | < 10 nM |
| O=C1Nc2cccc(n2)-c2nncn2CCCCCc2ccc(-c3ccc(C4CC4)nc3)cc21 [Example 8] | 10 to 100 nM |
| O=C1Nc2cccc(n2)-c2nncn2CCCCCCOc2ccc(-c3ccc(C4CC4)nc3)cc21 [Example 9] | 100 to 1000 nM |
| O=C1Nc2cccc(n2)-c2nncn2CC=CCCOc2ccc(Br)cc21 [Example 10] | < 10 nM |
| COc1ccc2c(c1)C(=O)Nc1cccc(n1)-c1nncn1CCCCCCO2 [Example 11] | < 10 nM |
| O=C1Nc2cccc(n2)-c2nncn2CC=CCCCOc2ccc(Br)cc21 [Example 12] | 10 to 100 nM |
| O=C1Nc2cccc(n2)-c2nncn2CC=CCCCOc2ccc(-c3ccc(C4CC4)nc3)cc21 [Example 13] | > 1000 nM |
| O=C1Nc2cccc(n2)-c2nncn2CC=CCCOc2ccc(-c3ccc(C4CC4)nc3)cc21 [Example 14] | 10 to 100 nM |
| O=C1Nc2cccc(n2)-c2nncn2C/C=C\COc2ccc(Br)cc21 [Example 16] | 10 to 100 nM |
| O=C1Nc2cccc(n2)-c2nncn2C/C=C/CCOc2ccc(OCc3ccccc3)cc21 [Example 17] | 10 to 100 nM |
| O=C1Nc2cccc(n2)-c2nncn2C/C=C/COc2ccc(OCc3ccccc3)cc21 [Example 18] | < 10 nM |

| Compound | Kd |
| --- | --- |
| O=C1Nc2cccc(n2)-c2nncn2CCCCOc2ccc(OC3CCOC3)cc21 (centres unmarked) [Example 20] | 10 to 100 nM |
| O=C1Nc2cccc(c2)-c2nncn2CCCOc2ccc(-c3ccc(C4CC4)nc3)cc21 [Example 21] | > 1000 nM |
| O=C1Nc2cccc(n2)-c2nncn2CCCCOc2cc(F)c(F)cc21 [Example 25] | 100 to 1000 nM |
| O=C1Nc2cccc(n2)-c2nncn2CCCCOc2cc(F)c(Br)cc21 [Example 28] | 100 to 1000 nM |
| COc1cc2c(cc1OC)C(=O)Nc1cccc(n1)-c1nncn1CCCCO2 [Example 29] | 100 to 1000 nM |
| N#Cc1ccc2c(c1)C(=O)Nc1cccc(n1)-c1nncn1CCCCO2 [Example 31] | < 10 nM |
| O=C1Nc2cccc(n2)-c2nncn2CCCCOc2ccc(C(F)(F)F)cc21 [Example 32] | 10 to 100 nM |
| O=C1Nc2cccc(n2)-c2nncn2CCCOc2ccc(Br)cc21 [Example 33] | 100 to 1000 nM |
| O=C1Nc2cccc(n2)-c2nncn2CCCCOc2ccc(Cl)cc21 [Example 41] | 10 to 100 nM |
| N#Cc1cc2c(cc1F)OCCCCn1cnnc1-c1cccc(n1)NC2=O [Example 44] | 10 to 100 nM |
| CC(C)n1nccc1-c1ccc2c(c1)C(=O)Nc1cccc(n1)-c1nncn1CCCCO2 [Example 45] | 100 to 1000 nM |
| Cc1ccc(-c2cc3c(cc2C)OCCCCn2cnnc2-c2cccc(n2)NC3=O)cn1 [Example 51] | < 10 nM |
| CC(C)(O)c1ccc2c(c1)OCCCCn1cnnc1-c1cccc(n1)NC2=O [Example 53] | < 10 nM |
| Cn1ncc2cc(-c3ccc4c(c3)C(=O)Nc3cccc(n3)-c3nncn3CCCCO4)ccc21 [Example 55] | < 10 nM |
| O=C1Nc2cccc(n2)-c2nncn2CCCOc2ccc(-c3ccccc3)cc21 [Example 57] | 10 to 100 nM |
| O=C1Nc2cccc(n2)-c2nncn2CCCCOc2ccc(-c3ccc4nccn4c3)cc21 [Example 58] | < 10 nM |
| COc1cc2c(cc1Br)OCCCCn1cnnc1-c1cccc(n1)NC2=O [Example 59] | 100 to 1000 nM |
